The subject of one series is MCF-7. The series can be described thus: Cytotoxicity assay (SRB), MCF-7. The conditions noted are these: MCF-7 cells, SRB, read-out: In Vitro Cellular Activity IC50 MCF-7. Format: cell-based. In a few lines:
(§1)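 Cells were seeded overnight in RPMI 1640 with 5% FBS at 37 °C, 7% CO2 (12000/well BT474, 4000 HCT-116, 6000 LoVo, 6000 MCF-7), then exposed to compound dilutions for 3 days (6 days for BT474). Survival versus untreated controls was measured by TCA fixation and SRB staining at 540 nm.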

A further series has as its system BT474. Put plainly: Cytotoxicity assay (SRB), BT474. It counts as cell-based. A digest of the protocol:
as §1

In another series the target is T1, cyclin D1/cdk 4 enzyme (Homo sapiens, UniProt P11802).
T1 construct: made in house; host or cells: Sf9 insect cells, recombinant baculovirus
Put plainly: CDK4 ELISA kinase assay (phospho-Rb ser 795 detection). The conditions noted are these: read-out: CDK4 IC50. It counts as biochemical. In a few lines:
(§2)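 Inhibition was derived from A450 relative to control wells lacking compound, following an anti-phospho-Rb Ser795 sandwich of HRP detection. The reactions combined coated GST-Rb fragment, 200 μM ATP and baculovirus-expressed cyclin/CDK enzymes, incubated for 1 h at 30° C.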
(In general: In an ELISA, binding on a coated surface is turned into a signal by an enzyme label.)

The target in a further series is T2, cyclin E/CDK2 enzyme (Homo sapiens, UniProt P24941).
T2 construct: made in house; host or cells: Sf9 insect cells, recombinant baculovirus
Put plainly: CDK2 ELISA kinase assay (phospho-Rb ser 795 detection). The conditions noted are these: read-out: CDK2 IC50. It counts as biochemical. A digest of the protocol: as §2

A further series has as its target T3, cyclin B/CDK1 enzyme (Homo sapiens, UniProt P06493).
T3 construct: purchased New England BioLabs; host or cells: Sf9 insect cells, recombinant baculovirus
Put plainly: CDK1 ELISA kinase assay (phospho-Rb ser 795 detection). The conditions noted are these: read-out: CDK1 IC50. Format: biochemical. In a few lines: as §2

Another series relates to HCT-116. The series can be described thus: Cytotoxicity assay (SRB), HCT-116. It counts as cell-based. The conditions noted are these: HCT116 cells, SRB, read-out: In Vitro Cellular Activity IC50 HCT116. In a few lines:
as §1

Another series deals with LoVo. Put plainly: Cytotoxicity assay (SRB), LoVo. It counts as cell-based. The conditions noted are these: LoVo cells, SRB, read-out: In Vitro Cellular Activity IC50 LOVO. A digest of the protocol:
as §1

Where [1] appears, read: Homo sapiens, MCF7, 72 h, 3 days.
Where [2] appears, read: Homo sapiens, BT-474, 144 h, BT474 cells, 6 days, SRB; read-out: In Vitro Cellular Activity IC50 BT474.
Where [3] appears, read: Homo sapiens, HCT-116, 72 h, 3 days.
[4] abbreviates: Homo sapiens, LoVo, 72 h, 3 days.
[5] abbreviates: In Vitro Enzyme Assays, 200 μM ATP.
[6] abbreviates: BT474 cells, SRB, 6 days; read-out: In Vitro Cellular Activity IC50 BT474.

For orientation: melting point means the temperature, or range, at which the solid turns liquid. A word on the IC50: it is the concentration at which inhibition is half-maximal.

Where a name gives a salt, the structure may show the parent alone. Read-outs that look alike come from different tables or passages of the source. Some results are limits rather than exact numbers.

T1 sequence (P11802 whole entry, species assumed): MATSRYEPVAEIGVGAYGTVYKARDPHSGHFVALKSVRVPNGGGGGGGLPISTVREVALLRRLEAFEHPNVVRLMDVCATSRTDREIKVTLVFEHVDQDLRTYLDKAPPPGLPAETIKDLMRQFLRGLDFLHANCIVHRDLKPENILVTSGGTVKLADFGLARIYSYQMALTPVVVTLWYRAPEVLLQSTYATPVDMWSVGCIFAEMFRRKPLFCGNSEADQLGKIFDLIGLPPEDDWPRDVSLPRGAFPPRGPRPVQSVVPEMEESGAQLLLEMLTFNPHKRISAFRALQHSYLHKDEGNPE
T1 sequence (P24385 whole entry partner, species assumed): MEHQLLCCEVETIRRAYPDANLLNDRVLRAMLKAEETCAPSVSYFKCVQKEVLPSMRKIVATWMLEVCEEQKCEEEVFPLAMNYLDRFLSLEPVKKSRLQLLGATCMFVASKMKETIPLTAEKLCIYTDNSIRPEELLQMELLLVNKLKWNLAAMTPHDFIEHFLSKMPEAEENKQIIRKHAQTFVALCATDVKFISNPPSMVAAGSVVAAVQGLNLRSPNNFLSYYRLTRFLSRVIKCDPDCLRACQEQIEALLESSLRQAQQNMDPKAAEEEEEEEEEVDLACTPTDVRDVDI
T3 sequence (P06493 whole entry): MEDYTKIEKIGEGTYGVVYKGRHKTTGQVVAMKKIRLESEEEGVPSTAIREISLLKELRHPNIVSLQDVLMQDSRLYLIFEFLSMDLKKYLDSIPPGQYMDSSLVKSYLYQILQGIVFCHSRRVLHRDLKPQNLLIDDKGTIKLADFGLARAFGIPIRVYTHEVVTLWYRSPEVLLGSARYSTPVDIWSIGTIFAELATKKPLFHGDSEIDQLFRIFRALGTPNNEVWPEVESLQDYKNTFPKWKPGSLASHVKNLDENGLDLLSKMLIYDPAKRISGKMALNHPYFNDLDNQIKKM
T3 sequence (P14635 whole entry partner): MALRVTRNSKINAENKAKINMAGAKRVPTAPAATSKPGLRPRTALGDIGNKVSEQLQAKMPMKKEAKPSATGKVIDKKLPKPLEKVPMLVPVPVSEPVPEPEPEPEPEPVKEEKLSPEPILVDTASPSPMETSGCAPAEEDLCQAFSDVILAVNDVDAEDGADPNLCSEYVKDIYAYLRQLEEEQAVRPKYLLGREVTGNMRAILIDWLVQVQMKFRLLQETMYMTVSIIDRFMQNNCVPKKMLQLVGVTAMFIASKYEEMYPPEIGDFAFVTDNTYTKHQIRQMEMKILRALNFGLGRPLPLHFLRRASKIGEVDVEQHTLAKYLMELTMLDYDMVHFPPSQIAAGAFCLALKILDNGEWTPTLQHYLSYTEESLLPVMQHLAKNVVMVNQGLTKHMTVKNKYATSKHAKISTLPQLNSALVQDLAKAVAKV

Compound `CN1CCN(c2ccc(N/C=C3\C(=O)NC(=O)c4ccccc43)cc2)CC1` gave a melting point of 245 to 246 °C.

`CN1CCN(CCCNC=C2C(=O)NC(=O)c3ccc(-n4cccc4)cc32)CC1` (as salt: TFA) [Example 279, 4-{[3-(4-Methyl-piperazin-1-yl)-propylamino]-methylene}-6-pyrrol-1-yl-4H-isoquinoline-1,3-dione] returned a melting point of 207 to 210 °C.

For the compound `COc1ccc(CN/C=C2\C(=O)NC(=O)c3ccc(Cl)cc32)cc1O` (as salt: hydrochloride) [Example 67, (4Z)-6-Chloro-4-{[(3-hydroxy-4-methoxybenzyl)amino]methylene}isoquinoline-1,3(2H,4H)-dione], the melting point lay in the range of 265 to 266 °C.

`COc1ccc(CN/C=C2\C(=O)NC(=O)c3ccc(I)cc32)cc1O` (as salt: hydrochloride) [Example 80, (4Z)-6-Iodo-4-{[(3-hydroxy-4-methoxybenzyl)amino]methylene}isoquinoline-1,3(2H,4H)-dione]: the melting point was in the range of 209 to 210 °C.

Take `COc1ccc(CN/C=C2\C(=O)NC(=O)c3ccc(-c4ccsc4)cc32)cc1O` (as salt: hydrochloride) [Example 88, (4Z)-4-{[(3-Hydroxy-4-methoxybenzyl)amino]methylene}-6-thien-3-ylisoquinoline-1,3(2H,4H)-dione]: the melting point fell in the range of 219 to 220 °C.

On to `COc1ccc(CN/C=C2\C(=O)NC(=O)c3ccccc32)cc1O` (as salt: hydrochloride) [Example 98, (4Z)-4-{[(3-Hydroxy-4-methoxybenzyl)amino]methylene}isoquinoline-1,3(2H,4H)-dione], for which the melting point lay within 192 to 193 °C.

Turning to `CN(CCN1CCCCC1)c1ccc(N/C=C2\C(=O)NC(=O)c3ccc(Br)cc32)cc1` [Example 865, (4Z)-6-bromo-4-[({4-[methyl(2-piperidin-1-ylethyl)amino]phenyl}amino)methylene]isoquinoline-1,3(2H,4H)-dione], the IC50 with MCF-7 (setting [1]) is 5.3 µM; in the series on BT474 (setting [2]) it was 7.5 µM; at cyclin D1/cdk 4 enzyme (In Vitro Enzyme Assay) it was 4.3 µM; at cyclin E/CDK2 enzyme (In Vitro Enzyme Assay), more than 50 µM; on cyclin B/CDK1 enzyme (In Vitro Enzyme Assay), more than 50 µM; in the series with HCT-116 (setting [3]), 3.1 µM. Besides, the concentration for half-maximal inhibition (IC50) with LoVo (setting [4]) worked out at 3.6 µM.

Turning to `CN(C)CCOc1ccc(N/C=C2\C(=O)NC(=O)c3ccc(Br)cc32)cc1` [Example 867, (4Z)-6-Bromo-4-[({4-[2-(dimethylamino)ethoxy]phenyl}amino)methylene]isoquinoline-1,3(2H,4H)-dione], the half-maximal inhibitory concentration (IC50) in the series with MCF-7 (setting [1]) was 6.7 µM; in the series with BT474 (setting [2]) it was 8.3 µM; at cyclin D1/cdk 4 enzyme (In Vitro Enzyme Assay), 0.48 µM; at cyclin E/CDK2 enzyme (In Vitro Enzyme Assay) it was more than 50 µM; at cyclin B/CDK1 enzyme (In Vitro Enzyme Assay), more than 50 µM; with HCT-116 (setting [3]), 3.5 µM. Further, in the series on LoVo (setting [4]), the concentration for half-maximal inhibition (IC50) stood at 5.3 µM.

For `CN1Cc2ccc(N/C=C3\C(=O)NC(=O)c4ccc(Br)cc43)cc2C1` [Example 868, (4Z)-6-Bromo-4-{[(2-methyl-2,3-dihydro-1H-isoindol-5-yl)amino]methylene}isoquinoline-1,3(2H,4H)-dione], the IC50 in the series with MCF-7 (setting [1]) was 5.5 µM; with BT474 (setting [2]) it was 6.8 µM; at cyclin D1/cdk 4 enzyme (In Vitro Enzyme Assay), 1.2 µM; on cyclin E/CDK2 enzyme (In Vitro Enzyme Assay) it was 2.5 µM; at cyclin B/CDK1 enzyme (In Vitro Enzyme Assay), 20.7 µM; in the series on HCT-116 (setting [3]), 2.5 µM. In addition, the IC50 in the series with LoVo (setting [4]) was found to be 3.9 µM.

`O=C1NC(=O)c2ccc(Br)cc2/C1=C/Nc1ccc(-n2ccnc2)cc1` [Example 869, (4Z)-6-Bromo-4-({[4-(1H-imidazol-1-yl)phenyl]amino}methylene)isoquinoline-1,3(2H,4H)-dione]: the IC50 with MCF-7 (setting [1]) is more than 50 µM; in the series with BT474 (setting [2]) it was more than 50 µM; at cyclin D1/cdk 4 enzyme (In Vitro Enzyme Assay) it was 22.6 µM; at cyclin E/CDK2 enzyme (In Vitro Enzyme Assay), 14.7 µM; at cyclin B/CDK1 enzyme (In Vitro Enzyme Assay), more than 50 µM; with HCT-116 (setting [3]), 5.4 µM. The concentration for half-maximal inhibition (IC50) in the series with LoVo (setting [4]) was more than 50 µM.

For `CC(=O)Oc1cc(CN/C=C2\C(=O)NC(=O)c3ccc(Br)cc32)cc2c1OC(C)(C)O2` [Example 872, 6-({[(Z)-(6-Bromo-1,3-dioxo-2,3-dihydroisoquinolin-4(1H)-ylidene)methyl]amino}methyl)-2,2-dimethyl-1,3-benzodioxol-4-yl acetate], the IC50 was 34.8 µM with MCF-7 (setting [1]); more than 50 µM with BT474 (setting [2]); 34.7 µM on cyclin D1/cdk 4 enzyme (In Vitro Enzyme Assay); 23.6 µM on cyclin E/CDK2 enzyme (In Vitro Enzyme Assay); 1.2 µM at cyclin B/CDK1 enzyme (In Vitro Enzyme Assay); 28.6 µM in the series on HCT-116 (setting [3]). For the same compound, the half-maximal inhibitory concentration (IC50) in the series on LoVo (setting [4]) was 47.1 µM.

For the compound `CC1(C)Oc2cc(CN/C=C3\C(=O)NC(=O)c4ccc(Br)cc43)cc(OC(=O)C3CC3)c2O1` [Example 873, 6-({[(Z)-(6-Bromo-1,3-dioxo-2,3-dihydroisoquinolin-4(1H)-ylidene)methyl]amino}methyl)-2,2-dimethyl-1,3-benzodioxol-4-yl cyclopropanecarboxylate], the IC50 in the series with MCF-7 (setting [1]) was 29.2 µM; with BT474 (setting [2]), 42.7 µM; on cyclin D1/cdk 4 enzyme (In Vitro Enzyme Assay), more than 50 µM; on cyclin E/CDK2 enzyme (In Vitro Enzyme Assay) it was 24.7 µM; at cyclin B/CDK1 enzyme (In Vitro Enzyme Assay), 1.9 µM; in the series with HCT-116 (setting [3]) it was 24.5 µM. Also, in the series with LoVo (setting [4]), the concentration for half-maximal inhibition (IC50) came out at 41.1 µM.

As for `CN(C)CCCc1ccc(N/C=C2\C(=O)NC(=O)c3ccc(Br)cc32)cc1` [Example 874, (4Z)-6-Bromo-4-[({4-[3-(dimethylamino)propyl]phenyl}amino)methylene]isoquinoline-1,3(2H,4H)-dione], the IC50 is 7.2 µM with MCF-7 (setting [1]); 27.4 µM with BT474 (setting [2]); 3 µM at cyclin D1/cdk 4 enzyme (In Vitro Enzyme Assay); 38.8 µM on cyclin E/CDK2 enzyme (In Vitro Enzyme Assay); more than 50 µM at cyclin B/CDK1 enzyme (In Vitro Enzyme Assay); 12.6 µM in the series on HCT-116 (setting [3]). Besides, in the series on LoVo (setting [4]), the 50% inhibitory concentration (IC50) amounted to 23.7 µM.

With `O=C1NC(=O)c2ccc(Br)cc2/C1=C/Nc1ccc(CN2CCC(O)CC2)cc1` [compound 75], the 50% inhibitory concentration (IC50) with MCF-7 (Homo sapiens, MCF7, 72 h, three days) is 4.3 µM; in the series on BT474 (Homo sapiens, BT-474, 144 h, BT474 cells, SRB, 6 days; read-out: In Vitro Cellular Activity IC50 BT474), 9.7 µM; at cyclin D1/cdk 4 enzyme (setting [5]), 0.29 µM; at cyclin E/CDK2 enzyme (In Vitro Enzyme Assays) it was 7.2 µM; on cyclin B/CDK1 enzyme (In Vitro Enzyme Assays), more than 50 µM; in the series on HCT-116 (Homo sapiens, HCT-116, 72 h, three days), 5.8 µM. Also, the half-maximal inhibitory concentration (IC50) in the series on LoVo (Homo sapiens, LoVo, 72 h, three days) came out at 6 µM.

As to “(4Z)-4-{[(3-Hydroxy-4-propoxybenzyl)amino]methylene}-6-thiene-3-ylisoquinoline-,3(2H,4H)-dione [Example 183]”, the IC50 in the series with MCF-7 (three days) was 8.8 µM; with BT474 (setting [6]), 13 µM; on cyclin D1/cdk 4 enzyme (setting [5]), 0.11 µM; on cyclin E/CDK2 enzyme (In Vitro Enzyme Assays), more than 50 µM; on cyclin B/CDK1 enzyme (In Vitro Enzyme Assays), more than 50 µM; with HCT-116 (three days) it was 8.4 µM. In addition, the IC50 in the series with LoVo (three days) stood at 12 µM.

As to “(4Z)-6-Piperidin-1-yl-4-({[4-(methylPiperzin-1-yl)phenyl]amino}methylene)isoquinoline-1,3(2H,4H)-dione [Example 119]”, the half-maximal inhibitory concentration (IC50) in the series on MCF-7 (three days) was 6.2 µM; in the series with BT474 (setting [6]) it was 7.5 µM; at cyclin D1/cdk 4 enzyme (setting [5]) it was 1.62 µM; at cyclin E/CDK2 enzyme (In Vitro Enzyme Assays), more than 50 µM; at cyclin B/CDK1 enzyme (In Vitro Enzyme Assays), more than 50 µM; in the series with HCT-116 (three days) it was 3.3 µM. For the same compound, the half-maximal inhibitory concentration (IC50) with LoVo (three days) was determined as 7.3 µM.

Take “PEG5000thio-acetic acid 5-{[(6-bromo-1,3-dioxo-2,3-dihydro-1H-isoquinolin-4-ylidenemethyl)-amino]-methyl}-2-propoxy-phenyl ester [Example 228]”: the IC50 was approximately 8.6 µM with MCF-7 (three days); approximately 1.2 µM with BT474 (setting [6]); approximately 1.5 µM on cyclin D1/cdk 4 enzyme (setting [5]); more than 50 µM on cyclin E/CDK2 enzyme (In Vitro Enzyme Assays); more than 50 µM at cyclin B/CDK1 enzyme (In Vitro Enzyme Assays); approximately 2.1 µM in the series with HCT-116 (three days). Besides, the half-maximal inhibitory concentration (IC50) in the series on LoVo (three days) is approximately 2.5 µM.

For the compound “PEG5000thio-acetic acid 5-{[(6-iodo-1,3-dioxo-2,3-dihydro-1H-isoquinolin-4-ylidenemethyl)-amino]-methyl}-2-propoxy-phenyl ester [Example 292]”, the IC50 with MCF-7 (three days) is approximately 6.5 µM; with BT474 (setting [6]) it was approximately 0.9 µM; on cyclin D1/cdk 4 enzyme (setting [5]), approximately 1.5 µM; at cyclin E/CDK2 enzyme (In Vitro Enzyme Assays), approximately 33.9 µM; at cyclin B/CDK1 enzyme (In Vitro Enzyme Assays), approximately 19.7 µM; in the series with HCT-116 (three days), approximately 1.2 µM. The 50% inhibitory concentration (IC50) in the series with LoVo (three days) is approximately 1.2 µM.

(Values after patent publication US7713994B2 (Wyeth LLC, priority 2005, dated 2010).)
